Experimental data published in patent US8633238B2, “Lactams and uses thereof” (Joben Bio-Medical Co., Ltd., priority 2012, dated 2014).

Tests used:
Type in all cases: cell-based, human
Settings in all cases: 50 μM, 24 h
[1] = test system: MDA-MB-231 cells; assay: MTT antiproliferation assay, MDA-MB-231 cells
Experimental: (§1) Cell Lines and Culture. MCF-7, T-47D, and H184B5F5/M10 cells were cultured with 5% CO2 atmosphere at 37° C.; MDA-MB-231 cells were cultured without CO2 at 37° C. The MCF-7 cells were cultured in MEM containing 10% heat-inactivated FBS, 100 units/mL penicillin, 100 μg/mL streptomycin, and 1 mM sodium pyruvate. The T-47D cells were maintained in RPMI-1640 medium containing 10% heat inactivated FBS, 100 units/mL penicillin, and 100 μg/mL streptomycin. […]
(§2) Assay for Antiproliferation. To determine the antiproliferative effect, MCF-7, T-47D, MDA-MB-231, or H184B5F5/M10 cells were assessed using the MTT assay as previously reported (Ho, C. Y.; Kim, C, F.; Leung, K. N.; Fung, K. P.; Tse, T. F.; Chan, H.; Lau, C. B. Differential anti-tumor activity of Coriolus versicolor (Yunzhi) extract through p53- and/or Bcl-2-dependent apoptotic pathway in human breast cancer cells. Cancer Biol. Ther. 2005, 4, e11-e17). […] The absorbance at 570 nm was measured, and the viability of cells was calculated using the following equation: relative cell number (%)=(average absorbance of treated wells)×100/(average absorbance of blank vehicle wells).

[2] = test system: MCF-7 cells; assay: MTT antiproliferation assay, MCF-7 cells
Experimental: as §1, §2

[3] = test system: T-47D cells; assay: MTT antiproliferation assay, T-47D cells
Experimental: as §1, §2

coixspirolactam D [compound 1]
percentage of inhibition [1]: 47.4%
percentage of inhibition [2]: 30.2%

coixspirolactam E [compound 2]
percentage of inhibition [3]: 20.7%
percentage of inhibition [1]: 25.3%
